ChEMBL document CHEMBL5120900, “Structure-Based Discovery of a Series of NSD2-PWWP1 Inhibitors” (J Med Chem, 2022)
Calls of active or inactive are those of the source. The rule behind the calls is not given here.

Key:
[1] = test system: MV4-11; assay: Induction of apoptosis in human MV4-11 cells assessed as viable cells at 5 uM measured after 72 hrs by Annexin V FITC/PI staining based flow cytometry analysis (reference value: 91.7%); assay type: functional; conditions: read-out: Activity
[2] = test system: KMS-11; assay: Induction of apoptosis in human KMS-11 cells assessed as late apoptotic cells at 5 uM measured after 72 hrs by Annexin V FITC/PI staining based flow cytometry analysis (reference value: 13.3 %); assay type: functional
[3] = test system: KMS-11; assay: Cell cycle arrest in human KMS-11 cells assessed as increase in accumulation of G0/G1 phase at 5 to 10 uM measured after 24 hrs by PI staining based flow cytometric analysis; assay type: functional; conditions: dose 5-10 µM
[4] = test system: MV4-11; assay: Induction of apoptosis in human MV4-11 cells assessed as late apoptotic cells at 5 uM measured after 72 hrs by Annexin V FITC/PI staining based flow cytometry analysis (reference value: 3.02%); assay type: functional
[5] = test system: MV4-11; assay: Induction of apoptosis in human MV4-11 cells assessed as necrotic cells at 10 uM measured after 72 hrs by Annexin V FITC/PI staining based flow cytometry analysis (reference value: […]); assay type: functional
[6] = test system: KMS-11; assay: Antiproliferative activity against human KMS-11 cells assessed as inhibition of cell proliferation measured after 6 days by CCK8 assay; assay type: functional, cell-based; conditions: KMS-11, 144 h
[7] = test system: KMS-11; assay: Induction of apoptosis in human KMS-11 cells assessed as early apoptotic cells at 10 uM measured after 72 hrs by Annexin V FITC/PI staining based flow cytometry analysis (reference value: 16.5 %); assay type: functional
[8] = molecular target: T1, Histone-lysine N-methyltransferase NSD2 (Homo sapiens) (UniProt O96028); assay: Inhibition of NSD2 in human RS4-11 cells assessed as decrease in RRAS2 gene expression at 10 uM incubated for 72 hrs by RT-PCR analysis; assay type: cell-based
T1 sequence (whole entry): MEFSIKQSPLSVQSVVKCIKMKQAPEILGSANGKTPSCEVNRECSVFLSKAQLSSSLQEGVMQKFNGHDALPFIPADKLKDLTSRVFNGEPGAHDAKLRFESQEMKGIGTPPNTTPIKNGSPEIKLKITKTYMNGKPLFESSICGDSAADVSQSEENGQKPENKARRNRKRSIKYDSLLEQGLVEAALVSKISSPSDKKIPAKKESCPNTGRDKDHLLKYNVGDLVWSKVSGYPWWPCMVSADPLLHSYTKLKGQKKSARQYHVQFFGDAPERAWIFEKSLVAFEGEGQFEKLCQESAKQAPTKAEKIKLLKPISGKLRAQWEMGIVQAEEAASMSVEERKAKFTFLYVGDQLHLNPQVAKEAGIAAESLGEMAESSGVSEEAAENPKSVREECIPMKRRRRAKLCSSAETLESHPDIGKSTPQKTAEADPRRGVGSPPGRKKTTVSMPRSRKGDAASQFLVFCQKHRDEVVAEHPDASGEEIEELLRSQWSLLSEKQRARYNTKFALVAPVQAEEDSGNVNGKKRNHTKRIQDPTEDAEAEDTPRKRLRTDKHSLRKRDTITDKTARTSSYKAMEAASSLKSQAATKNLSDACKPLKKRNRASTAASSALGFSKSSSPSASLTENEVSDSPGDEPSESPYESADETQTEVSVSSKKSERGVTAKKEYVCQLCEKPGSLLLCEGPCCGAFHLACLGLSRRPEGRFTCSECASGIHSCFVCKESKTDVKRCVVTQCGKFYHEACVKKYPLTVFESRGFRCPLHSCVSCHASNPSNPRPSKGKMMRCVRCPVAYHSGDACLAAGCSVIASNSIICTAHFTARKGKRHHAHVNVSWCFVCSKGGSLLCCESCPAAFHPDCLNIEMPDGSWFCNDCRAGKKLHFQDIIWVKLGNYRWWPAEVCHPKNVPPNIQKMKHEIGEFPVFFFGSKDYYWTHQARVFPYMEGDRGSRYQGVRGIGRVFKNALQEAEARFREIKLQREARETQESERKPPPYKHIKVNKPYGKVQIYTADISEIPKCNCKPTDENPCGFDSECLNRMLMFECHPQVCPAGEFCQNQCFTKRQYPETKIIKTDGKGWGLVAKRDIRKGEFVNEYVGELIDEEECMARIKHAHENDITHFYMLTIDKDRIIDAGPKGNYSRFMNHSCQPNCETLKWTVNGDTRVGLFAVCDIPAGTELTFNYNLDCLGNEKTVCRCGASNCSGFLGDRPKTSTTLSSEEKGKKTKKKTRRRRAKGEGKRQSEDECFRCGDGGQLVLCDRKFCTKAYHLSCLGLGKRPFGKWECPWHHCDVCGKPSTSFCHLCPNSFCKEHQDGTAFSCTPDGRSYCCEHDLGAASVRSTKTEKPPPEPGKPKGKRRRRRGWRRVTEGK

[9] = test system: KMS-11; assay: Induction of apoptosis in human KMS-11 cells assessed as early apoptotic cells at 5 uM measured after 72 hrs by Annexin V FITC/PI staining based flow cytometry analysis (reference value: 16.5 %); assay type: functional
[10] = test system: MV4-11; assay: Cell cycle arrest in human MV4-11 cells assessed as increase in accumulation of G0/G1 phase at 5 to 10 uM measured after 24 hrs by PI staining based flow cytometric analysis; assay type: functional; conditions: dose 5-10 µM
[11] = test system: RS4-11; assay: Antiproliferative activity against human RS4-11 cells assessed as inhibition of cell proliferation measured after 6 days by CCK8 assay; assay type: functional, cell-based; conditions: RS4-11, 144 h
[12] = test system: KMS-11; assay: Induction of apoptosis in human KMS-11 cells assessed as viable cells at 10 uM measured after 72 hrs by Annexin V FITC/PI staining based flow cytometry analysis (reference value: 69.4%); assay type: functional; conditions: read-out: Activity
[13] = molecular target: T1, Histone-lysine N-methyltransferase NSD2 (Homo sapiens); assay: Inhibition of NSD2 in human KMS-11 cells assessed as decrease in PAK1 gene expression at 10 uM incubated for 72 hrs by RT-PCR analysis; assay type: cell-based
[14] = molecular target: T1, Histone-lysine N-methyltransferase NSD2 (Homo sapiens); assay: Inhibition of NSD2 in human RS4-11 cells assessed as decrease in TGFA gene expression at 10 uM incubated for 72 hrs by RT-PCR analysis; assay type: cell-based
[15] = test system: MV4-11; assay: Antiproliferative activity against human MV4-11 cells assessed as inhibition of cell proliferation measured after 6 days by CCK8 assay; assay type: functional, cell-based; conditions: MV4-11, 144 h

inhibition [8]: Active | IC50 [11]: 6.3 µM | inhibition [13]: Active | inhibition [14]: Active | IC50 [15]: 2.23 µM
Structure (SMILES): Cc1cc(CN2CCC(N)CC2)cc(C)c1-c1ncn(C)c1-c1ccc(C#N)c2ccccc12
viability at 5 µM [1]: 91% | Activity [2]: 16.5% | Activity [3]: Active | Activity [4]: 2.37% | Activity [5]: 1.56% | IC50 [6]: 8.43 µM | Activity [7]: 28.7% | Activity [9]: 21.1% | Activity [10]: Active | viability at 10 µM [12]: 36.8%
